Legend:
[1] = Solubility of rotigotine in hydrophobic adhesives; format: physicochemical
[2] = Active-substance stability: rotigotine purity in the cement matrix by gradient HPLC; format: physicochemical; conditions: hot-melt processing
Method: The cement matrix was mixed with 0.1% methane sulfonic acid, agitated, centrifuged and measured. (b3) Analytics of the Active-Substance Stability: […] Column: LiChrosphere 100 CN, 125 mm×4.6 mm, 5 μm. Flow rate: 1.0 mL, column temperature: 40° C. UV detection (2 wavelengths: 272 and 220 nm).

- solubility of rotigotine in hydrophobic adhesives such as silicones [1]: soluble in trace amounts only
- remains stable under short-term heating to temperatures up to [2]: at least 160 °C
SMILES: CCCN(CCc1cccs1)[C@H]1CCc2c(O)cccc2C1 [rotigotine, (−)-5,6,7,8-tetrahydro-6-[propyl[2-(2-thienyl)ethyl-)amino]-1-naphthol]

Source: patent publication US8211462B2, “Hot-melt TTS for administering rotigotine” (UCB Pharma GmbH, priority 2002, dated 2012)
